# Measured values reported in PubChem BioAssay (NCI).
# Values joined by “and” are separate entries in the source; they are usually repeats but may differ in a detail not shown here. Equal entries are not always repeated.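 Dose response: 5 concentrations. Exposure: 48 h. Format: 96-well plates. Endpoint: linear interpolation; highest concentration if not reached. GI50: concentration for 50% inhibition of growth. At the TGI there is no net growth.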
# Tested on: MDA-MB-468 breast
# Experiment: NCI anticancer screen, dose series, 48 h
Structure (SMILES),GI50,TGI
COc1ccc(-c2ccc(-c3ccc(C(=N)N)nc3)s2)cc1,1630 nM,3110 nM
CC1=C2C(=C[C@@](C)(COC(=O)c3ccc(S(=O)(=O)F)cc3)[C@@H]2OC(=O)c2ccc(S(=O)(=O)F)cc2)C(=O)[C@](C)(O)C12CC2,187 nM,465 nM
CCCN(Cc1ccc(F)cc1)c1ccc(CO)c(Cl)c1,21.2 nM,62.5 nM
CCN(CC)c1ccc(/C=C/c2cc(C)c3ccccc3n2)cc1,3060 nM,9020 nM
COc1cc2cc(Oc3ccc(NC(=O)Nc4ccc(Cl)c(C(F)(F)F)c4)cc3)c(C)nc2cc1OCCN1CCCCC1,1340 nM,2850 nM
N#CSc1ncnc2nc[nH]c12,522 nM,> 100000 nM
COc1cccc(C2=C(c3cn(C)c4ccccc34)C(=O)NC2=O)c1,5130 nM,> 25000 nM
COc1ccc([C@@H]2[C@@H](O)C(=O)N2c2cc(OC)c(OC)c(OC)c2)cc1F,26.9 nM,398 nM
O=C(Nc1cccc(Cl)c1)Nc1ncc(CCNc2ncnc3ccsc23)s1,196 nM and 952 nM,8390 nM and > 10000 nM
N#Cc1ncc(/N=C/c2ccc(N(CCCl)CCCl)cc2)s1,436 nM,3650 nM
CNC(=O)c1cc(N2CCc3cc(NC(=O)Nc4ccc(N5CCN(C)CC5)c(C(F)(F)F)c4)ccc32)ccn1,3680 nM,7950 nM
CC(C)(O)c1ccc(N2CCN(c3nnc(Cc4ccccc4)c4ccccc34)CC2)nc1,2780 nM,12800 nM
Fc1ccc(-c2nc3n(c2-c2ccncc2)CCS3)cc1,4630 nM,> 25000 nM
O=c1cc(CNc2cc(F)cc(F)c2)c2ccc(I)cc2[nH]1,409 nM,> 100000 nM
OCC1OC(n2ccc3c2ncn2ncnc32)C(O)C1O (stereo not given),279 nM,3190 nM
CN(C)CCNC(=O)c1cccn2c(=O)c3cc4ccccc4cc3nc12,299 nM,1120 nM
CCOC(=O)Cc1c[nH]c(=S)[nH]c1=O,> 100000 nM,> 100000 nM
CC[C@H](Nc1nc(N)nc(C)c1C#N)c1nc2cccc(CN(C)c3ncc(C(=O)NO)cn3)c2c(=O)n1-c1ccccc1,367 nM,10500 nM
O=C(CCl)c1ccc([N+](=O)[O-])o1,1060 nM,2770 nM
COc1cc2c(cc1OC)-c1ccc3cc4c(cc3c1N(CCN1CCCC1)C2)OCO4,653 nM,2200 nM
Cc1cc(N2CCCCC2)nc(N(CCNc2ccnc3cc(Cl)ccc23)Cc2ccco2)n1,1740 nM,3870 nM
CCN=C1C=CC(=C(c2ccc(N(C)C)cc2)c2ccc(N(C)C)cc2)c2ccccc21,47 nM,346 nM
CCCC(=O)NC(c1cccnc1)c1ccc2c(C)ccnc2c1O (stereo not given),1680 nM,6910 nM

Structure (SMILES),GI50,TGI
c1ccc2nc(Cn3c[n+](Cc4ccc5ccccc5n4)c4ccccc43)ccc2c1,645 nM,5440 nM
O=C1C(Cl)=C(N/N=c2/[nH][nH]/c(=N/NC3=C(Cl)C(=O)c4ccccc4C3=O)c3ccccc23)C(=O)c2ccccc21,14700 nM,32900 nM
CCn1c(-c2nonc2N)nc2cncc(C(=O)N3CCNCC3)c21,> 25000 nM,> 25000 nM
O=S(=O)(c1ccc(NC(=S)NCc2cccnc2)cc1)N1CCCCC1,9800 nM,95800 nM
C[C@]12CC[C@H]3[C@@H](CCC4=CC(=O)CC[C@@H]43)[C@@H]1CC[C@@H]2OC(=O)N(CCCl)N=O,512 nM,5700 nM
CCc1ccc(NC(=O)Nc2c[nH]c3ccccc23)cc1,18800 nM,> 56500 nM
COc1ccc(Cn2nc(-c3cc(OC)c(OC)c(OC)c3)c3c2CCc2cnoc2-3)cc1OC,1940 nM,8840 nM
N=C(N)c1nn(C2OC(CO)C(O)C2O)c2nc[nH]c(=O)c12 (stereo not given),372 nM,1690 nM
CCN(CC)CCOc1ccc(C(=C(C)c2ccc(Cl)cc2)c2ccc(OCCN(CC)CC)cc2)cc1,556 nM,1100 nM
CC12CCC=CC1CCC1C2CCC2(C)C(c3ccc(=O)oc3)CCC12O (stereo not given),313 nM,1220 nM
C=C(C)[C@@H]1CC[C@]2(C(=O)NCCCN)CC[C@]3(C)[C@H](CC[C@@H]4[C@@]5(C)CC[C@H](O)C(C)(C)[C@@H]5CC[C@]43C)[C@@H]12,12600 nM,48500 nM
C[C@]12CC[C@H]3[C@@H](CC=C4C[C@@H](O)CC[C@@]43C)[C@@H]1CC[C@@H]2[C@](C)(O)CCc1cccnc1,1910 nM,> 100000 nM
CC(=O)/C(N=Nc1ccc2oc(=O)ccc2c1)=C(\C)O,2740 nM,12700 nM
COc1cc(Cn2cc3c(c2)-c2oncc2CC3)cc(OC)c1OC,14.7 nM,54.1 nM
CN(C)c1ccc2nc3ccc(=[N+](C)C)cc-3oc2c1,620 nM,3580 nM
O=C(CCN1CCCC1)Nc1ccc2c(NCc3ccc(F)cc3)c3ccccc3nc2c1,318 nM,1400 nM
CC1=C(C(=O)OCc2ccccc2)C(c2ccc3c(c2)OCO3)n2c(nc3ccccc32)N1 (stereo not given),247 nM,39500 nM
CCCN1C(=O)/C(=c2\sc3n(c2=O)C2C(NN=3)N(CC)C(=O)N2CC)c2ccccc21 (stereo not given),464 nM,10400 nM
CC1=C(C)C(=O)C(Nc2cccc(C(F)(F)F)c2)=C(Cl)C1=O,1240 nM,2940 nM
NC(=O)[C@H]1CCN(c2ncnc(N)c2F)C[C@@H]1N1CCC[C@@H](Nc2cc(Cl)cc(C(F)(F)F)c2)C1=O,11200 nM,34400 nM
CCN1C(=O)N(CC)C2C1NN=c1s/c(=C3\C(=O)N(C(C)C)c4ccccc43)c(=O)n12 (stereo not given),321 nM,5580 nM
COc1cc2nc(Cl)nc(Nc3cccc(C(=O)/C=C/c4ccccc4)c3)c2cc1OC,3390 nM,> 100000 nM
